Measured values reported in ChEMBL document CHEMBL5096200, “A short survey of dengue protease inhibitor development in the past 6 years (2015-2020) with an emphasis on similarities between DENV and SARS-CoV-2 proteases” (Bioorg Med Chem, 2021).
pEC50, pIC50, pKi: −log10 of the molar value. Where a name gives a salt, the structure may show the parent alone. Positions of bridges follow the written chain, without caps; N, C: chain ends. Non-standard residues stand in square brackets, D forms with d. Residues, ends and D or L forms follow the SMILES beside them. NBnAla = C[C@H](NCc1ccccc1)C(=O)O

Columns and labels:
[1] = biological target: T1, Genome polyprotein (dengue virus type 2, UniProt P29990); test: Inhibition of DENV2 NS2B-NS3 protease using […] as substrate preincubated for 10 mins followed by substrate addition and incubated for 60 mins by fluorescence spectroscopy assay
[2] = test system: dengue virus type 2; test: Antiviral activity against DENV2; format: functional, organism-based
[3] = biological target: T1, Genome polyprotein; test: Inhibition of DENV2 NS2B-NS3 protease
[4] = biological target: T1, Genome polyprotein; test: Binding affinity to DENV2 NS2B/NS3 protease assessed as inhibition constant
[5] = Binding affinity to wildtype DENV3 protease assessed as inhibition constant using [Ac-[D-EDANS]KRRSWP[K-DABCYL]-AMIDE] as substrate by FRET-based enzymatic assay; design: species or system dengue virus type 3
[6] = Inhibition of West Nile Virus NS2B (residues 1393 to 1440 )/NS3pro (residues 1476 to 1687) protease expressed in Escherichia coli BL21 (DE3) using e Pyr- RTKR-AMC as substrate preincubated for 30 mins followed by substrate addition and incubated for 90 mins by fluorescence spectrophotometry assay

T1 sequence (P29990 1346-1475 limits assumed): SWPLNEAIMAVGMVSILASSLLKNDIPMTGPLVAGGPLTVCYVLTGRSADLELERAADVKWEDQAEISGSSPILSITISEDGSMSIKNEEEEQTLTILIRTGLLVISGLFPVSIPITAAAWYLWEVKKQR
T1 sequence (P29990 1476-2093 limits assumed): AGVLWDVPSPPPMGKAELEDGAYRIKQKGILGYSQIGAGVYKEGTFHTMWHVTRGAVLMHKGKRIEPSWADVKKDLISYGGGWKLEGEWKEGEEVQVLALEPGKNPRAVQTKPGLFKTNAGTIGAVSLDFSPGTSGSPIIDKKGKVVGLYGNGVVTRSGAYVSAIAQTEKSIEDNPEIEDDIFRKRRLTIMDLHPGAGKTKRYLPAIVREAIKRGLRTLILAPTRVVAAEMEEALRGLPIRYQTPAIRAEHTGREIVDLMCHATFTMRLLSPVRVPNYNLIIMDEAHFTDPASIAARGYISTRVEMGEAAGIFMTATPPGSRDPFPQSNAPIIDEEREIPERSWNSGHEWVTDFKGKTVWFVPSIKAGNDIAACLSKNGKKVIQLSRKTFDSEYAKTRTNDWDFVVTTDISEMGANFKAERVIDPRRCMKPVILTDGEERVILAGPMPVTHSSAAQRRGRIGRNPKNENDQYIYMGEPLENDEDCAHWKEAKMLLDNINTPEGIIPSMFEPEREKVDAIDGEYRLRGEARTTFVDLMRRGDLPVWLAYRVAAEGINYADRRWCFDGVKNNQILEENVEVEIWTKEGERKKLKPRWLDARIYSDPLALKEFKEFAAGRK

O=C1/C(=C\c2ccc([N+](=O)[O-])cc2)CN(CC(=O)c2ccc(F)cc2)C/C1=C/c1ccc([N+](=O)[O-])cc1
pIC50 [1]: 4.82

O=C1OC2(c3ccccc31)c1cc(I)c(O)c(I)c1OC1C(I)=C(O)C(I)=CC12 (stereo unspecified)
pEC50 [2]: 5.92

O=[N+]([O-])c1ccc(N=Nc2ccc(O)c3ccccc23)c([N+](=O)[O-])c1
pKi [3]: 4.82
pKi [4]: 4.82

CC[C@H](C)[C@@H]1NC(=O)[C@H](Cc2c[nH]c3ccccc23)NC(=O)[C@H](C)NC(=O)[C@H](CCCNC(=N)N)NC(=O)[C@@H](NC(=O)[C@@H]2CCCN2)CSSC[C@@H](C(=O)N[C@H](CCCNC(=N)N)C(=O)O)NC(=O)CNC(=O)CNC(=O)[C@H](Cc2ccc(O)cc2)NC1=O
pKi [5]: 4.71

CC[C@H](C)[C@@H]1NC(=O)[C@H](CCCNC(=N)N)NC(=O)[C@H](C)NC(=O)[C@H](CCCNC(=N)N)NC(=O)[C@@H](NC(=O)c2ccccc2)CSSC[C@@H](C(=O)N[C@H](C)C(=O)O)NC(=O)CNC(=O)CNC(=O)[C@H](Cc2ccc(O)cc2)NC1=O
pKi [5]: 4.48

COc1ccc(S(=O)(=O)n2nc(OC(=O)c3ccccc3)cc2N)cc1
pIC50 [6]: 6.98

N=C(N)NCCC[C@@H]1NC(=O)[C@H](CCCCN)NC(=O)CNC(=O)[C@@H](N)CSSC[C@@H](C(=O)O)NC(=O)[C@H](CO)NC(=O)[C@H](CCCCN)NC1=O (H-CGKRKSC-OH; disulfide 1-7)
pKi [3]: 5.85
pKi [4]: 5.85

CC[C@H](C)[C@@H]1NC(=O)[C@H](CCCNC(=N)N)NC(=O)[C@H](C)NC(=O)[C@H](CCCNC(=N)N)NC(=O)[C@@H](N)CSSC[C@@H](C(=O)N[C@@H](C)C(=O)O)NC(=O)CNC(=O)CNC(=O)[C@H](Cc2ccc(O)cc2)NC(=O)CNC1=O (H-CRARIGYGGCA-OH; disulfide 1-10)
pKi [5]: 3.84

CC[C@H](C)[C@@H]1NC(=O)[C@H](CCCNC(=N)N)NC(=O)[C@H](C)NC(=O)[C@H](CCCCN)NC(=O)[C@@H](NC(=O)[C@@H]2CCCN2)CSSC[C@@H](C(=O)N[C@@H](C)C(=O)O)NC(=O)CNC(=O)CNC(=O)[C@H](Cc2ccc(O)cc2)NC(=O)CNC1=O (H-PCKARIGYGGCA-OH; disulfide 2-11)
pKi [5]: 3.42

CC[C@H](C)[C@@H]1NC(=O)[C@H](CCCNC(=N)N)NC(=O)[C@H](C)NC(=O)[C@H](CCCCN)NC(=O)[C@@H](NC(=O)[C@@H]2CCCN2)CSSC[C@@H](C(=O)N[C@@H](C)C(=O)O)NC(=O)CNC(=O)CNC(=O)[C@H](Cc2ccc(O)cc2)NC(=O)CNC(=O)CNC(=O)[C@H]([C@@H](C)CC)NC1=O (H-PCKARIIGGYGGCA-OH; disulfide 2-13)
pKi [5]: 3.17

CC[C@H](C)[C@@H]1NC(=O)[C@H](CCCNC(=N)N)NC(=O)[C@H](C)NC(=O)[C@H](CCCCN)NC(=O)[C@@H](NC(=O)[C@@H]2CCCN2)CSSC[C@@H](C(=O)N[C@@H](CCCNC(=N)N)C(=O)O)NC(=O)CNC(=O)CNC(=O)[C@H](Cc2ccc(O)cc2)NC(=O)CNC(=O)CNC(=O)[C@H]([C@@H](C)CC)NC1=O (H-PCKARIIGGYGGCR-OH; disulfide 2-13)
pKi [5]: 3.63

CC[C@H](C)[C@@H]1NC(=O)[C@H](CCCNC(=N)N)NC(=O)[C@H](C)NC(=O)[C@H](CCCCN)NC(=O)[C@@H](NC(=O)[C@@H]2CCCN2)CSSC[C@@H](C(=O)N[C@@H](C)C(=O)O)NC(=O)CNC(=O)CNC(=O)[C@H](Cc2ccc(O)cc2)NC1=O (H-PCKARIYGGCA-OH; disulfide 2-10)
pKi [5]: 4.84

CC[C@H](C)[C@@H]1NC(=O)[C@H](CCCNC(=N)N)NC(=O)[C@H](C)NC(=O)[C@H](CCCNC(=N)N)NC(=O)[C@@H](NC(=O)[C@@H]2CCCN2)CSSC[C@@H](C(=O)N[C@@H](C)C(=O)O)NC(=O)CNC1=O (H-PCRARIGCA-OH; disulfide 2-8)
pKi [5]: 3.99

CC[C@H](C)[C@@H]1NC(=O)[C@H](CCCNC(=N)N)NC(=O)[C@H](C)NC(=O)[C@H](CCCNC(=N)N)NC(=O)[C@@H](NC(=O)[C@@H]2CCCN2)CSSC[C@@H](C(=O)N[C@@H](C)C(=O)O)NC(=O)CNC(=O)CNC1=O (H-PCRARIGGCA-OH; disulfide 2-9)
pKi [5]: 3.11

CC[C@H](C)[C@@H]1NC(=O)[C@H](CCCNC(=N)N)NC(=O)[C@H](C)NC(=O)[C@H](CCCNC(=N)N)NC(=O)[C@@H](NC(=O)[C@@H]2CCCN2)CSSC[C@@H](C(=O)N[C@@H](CCCNC(=N)N)C(=O)O)NC(=O)CNC(=O)CNC1=O (H-PCRARIGGCR-OH; disulfide 2-9)
pKi [5]: 4.53

CC[C@H](C)[C@@H]1NC(=O)[C@H](CCCNC(=N)N)NC(=O)[C@H](C)NC(=O)[C@H](CCCNC(=N)N)NC(=O)[C@@H](NC(=O)[C@@H]2CCCN2)CSSC[C@@H](C(=O)N[C@@H](C)C(=O)O)NC(=O)CNC(=O)[C@H](Cc2ccc(O)cc2)NC1=O (H-PCRARIYGCA-OH; disulfide 2-9)
pKi [5]: 3.33

CC[C@H](C)[C@@H]1NC(=O)[C@H](CCCNC(=N)N)NC(=O)[C@H](C)NC(=O)[C@H](CCCNC(=N)N)NC(=O)[C@@H](NC(=O)[C@@H]2CCCN2)CSSC[C@@H](C(=O)N[C@@H](C)C(=O)O)NC(=O)CNC(=O)CNC(=O)[C@H](Cc2ccc(O)cc2)NC1=O (H-PCRARIYGGCA-OH; disulfide 2-10)
pKi [5]: 3.01

C[C@H](NCc1ccccc1)C(=O)N[C@@H](CCCCN)C(=O)N[C@@H](CCCNC(=N)N)C(=O)N[C@@H](CCCNC(=N)N)C(=O)O (H-[NBnAla]KRR-OH)
pKi [3]: 5.28
pKi [4]: 5.28

CCCCC(CC)CN=C(N)N=C(N)NCCCCCCNC(N)=NC(N)=NCC(CC)CCCC (stereo unspecified) [ALEXIDINE HYDROCHLORIDE]
pKi [3]: 4.39

COc1cc(O)c(C(=O)[C@@H]2[C@H](CC=C(C)C)C(C)=CC[C@H]2c2ccccc2)c(O)c1 [PANDURATIN A]
pIC50 [1]: 4.24

CO[C@H]1C[C@H](O[C@@H]2/C(C)=C/C[C@@H]3C[C@@H](C[C@]4(CC[C@H](C)[C@@H](C5CCCCC5)O4)O3)OC(=O)[C@@H]3C=C(C)/C(=N/O)[C@H]4OC/C(=C\C=C\[C@@H]2C)[C@]43O)O[C@@H](C)[C@@H]1O [SELAMECTIN]
pKi [4]: 4.20

IVERMECTIN
pKi [3]: 4.10
pKi [4]: 4.10
